The assay addresses Envelope glycoprotein gp160 (Human immunodeficiency virus 1, UniProt Q6QLK5). Description: inhibitors of HIV fusion peptide binding, primary screen, biochemical, uHTS, fluorescence dequenching (AID 1986).

We go through 1 compound from ChEMBL document CHEMBL1201862, “PubChem BioAssay data set” (2004).

Activity calls are given as the source filed them. Rule as the data show it: actives have a measured IC50 and inactives only a lower limit.

Envelope glycoprotein gp160, sequence (Q6QLK5 whole entry, the tested form may be a part): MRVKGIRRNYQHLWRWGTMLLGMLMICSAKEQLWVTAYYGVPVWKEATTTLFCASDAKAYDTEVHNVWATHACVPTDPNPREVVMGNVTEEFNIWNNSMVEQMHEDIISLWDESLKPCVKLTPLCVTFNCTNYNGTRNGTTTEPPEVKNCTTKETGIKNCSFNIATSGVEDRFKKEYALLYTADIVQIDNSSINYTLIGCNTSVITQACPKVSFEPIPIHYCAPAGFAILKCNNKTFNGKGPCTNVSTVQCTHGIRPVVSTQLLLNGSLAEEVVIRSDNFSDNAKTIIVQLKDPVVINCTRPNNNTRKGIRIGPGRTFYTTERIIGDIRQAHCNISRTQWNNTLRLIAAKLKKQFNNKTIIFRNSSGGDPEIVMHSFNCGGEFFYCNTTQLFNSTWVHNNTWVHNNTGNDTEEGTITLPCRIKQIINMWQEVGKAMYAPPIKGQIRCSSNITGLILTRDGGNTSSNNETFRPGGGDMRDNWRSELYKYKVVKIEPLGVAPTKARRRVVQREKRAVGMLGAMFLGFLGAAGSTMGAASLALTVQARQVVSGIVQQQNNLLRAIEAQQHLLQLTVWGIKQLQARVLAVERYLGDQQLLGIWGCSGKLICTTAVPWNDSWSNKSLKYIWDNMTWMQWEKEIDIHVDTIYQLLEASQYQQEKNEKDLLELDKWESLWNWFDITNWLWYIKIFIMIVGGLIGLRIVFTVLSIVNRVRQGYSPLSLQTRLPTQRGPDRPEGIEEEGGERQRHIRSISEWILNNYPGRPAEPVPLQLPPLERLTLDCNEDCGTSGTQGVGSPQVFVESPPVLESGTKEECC

In general, IC50 refers to the concentration needed to halve the response being measured. As for `COc1cc(/C=C2/C(=N)N3C(=NC2=O)SN=C3S(C)(=O)=O)ccc1OS(=O)(=O)c1ccccc1`, the IC50 is 19.8 µM (active).
